Assay results published in PMC7828231, “Delphinidin Increases the Sensitivity of Ovarian Cancer Cell Lines to 3-bromopyruvate” (International Journal of Molecular Sciences, 2021).

Columns and labels:
[1] = system: PEO1 cells; test: Cell migration (scraped area closure); format: cell-based, human
Method: Ovarian cancer cells and human normal fibroblasts were seeded on a 24-well plate at a density of 7 × 10^4/well (PEO1), 6.5 × 10^4/well (SKOV3) and 6 × 10^4/well (MRC-5) in 700 µL of appropriate cell medium and cultured at 37 °C to reach 90–95% confluence. Then, the cells in the middle of the wells were scraped off using sterile pipette tips (100 µL), cell debris was removed by washing with medium containing 2% FBS and the tested compounds diluted with medium containing 2% FBS were added. Images of the scraped area were collected after 12 h and 24 h at 10× objective magnification using an Olympus CKX53 microscope with a U-TV0. 5XC-3 digital microscope camera. The obtained results were analyzed using ImageJ software. The percentage of scraped area closure was estimated as the ratio of area measured after 12- or 24-h incubation and the area at the beginning of the experiment.

[2] = system: four OC cell lines; parameters: method as in PMID 26259240; conditions: cited from earlier work
[3] = system: not multi-resistant SKOV3 cells; parameters: method as in PMID 22954696; conditions: cited from earlier work
[4] = system: Multidrug-resistant SKOV3 cells; parameters: method as in PMID 22954696; conditions: cited from earlier work
[5] = biological target: glyoxalase I; parameters: method as in PMID 20801663; conditions: read-out: IC50 for glyoxalase I inhibition; cited from earlier work
[6] = system: MCF-7; parameters: method as in PMID 15680311; conditions: MCF-7, 50–200 µM; cited from earlier work
[7] = system: PC3 cell line; parameters: method as in PMID 27462923; conditions: PC3, up to 150 µM; cited from earlier work
[8] = system: NCI-H441 cells; parameters: method as in PMID 24124611; conditions: cited from earlier work
[9] = system: SK-MES-1 cells; parameters: method as in PMID 24124611; conditions: cited from earlier work
[10] = system: A549 cells; parameters: method as in PMID 24124611; conditions: cited from earlier work
[11] = system: LoVo cells; parameters: method as in PMID 20494645; conditions: LoVo parent cell line; cited from earlier work
[12] = system: SKOV3 cells; test: Apoptosis and necrosis assay (RealTime-Glo Annexin V); format: cell-based, human; conditions: after 24 h
Method: The levels of apoptosis and necrosis were assayed using the RealTime-Glo™ Annexin V Apoptosis and Necrosis Assay. Cells were seeded into a white 96-well plate with optical bottom, cultured and treated adequately, as stated above. After 24 h, 100 μL of the freshly prepared reagent was added to each well according to the manufacturer’s protocols. The fluorescence and luminescence were measured according to the protocols.

[13] = system: LoVo cell subline resistant to adriamycin; parameters: method as in PMID 20494645; conditions: cited from earlier work
[14] = system: AGS cells; parameters: method as in PMID 15680311; conditions: 50–200 µM; cited from earlier work
[15] = system: DU145 cell line; parameters: method as in PMID 27462923; conditions: DU145, up to 150 µM; cited from earlier work
[16] = system: HT29 cells; parameters: method as in PMID 17729219; conditions: cited from earlier work
[17] = system: NHF cells; parameters: method as in PMID 15016660; conditions: 100–200 µM; cited from earlier work
[18] = system: LnCaP cells; parameters: method as in PMID 27462923; conditions: starting from a concentration of 50 µM; cited from earlier work
[19] = system: SF-268 cells; parameters: method as in PMID 15680311; conditions: SF-268, 50–200 µM; cited from earlier work
[20] = system: NCI H460 cells; parameters: method as in PMID 15680311; conditions: NCI H460, 50–200 µM; cited from earlier work
[21] = system: Caco-2 cells; parameters: method as in PMID 15016660; conditions: Caco-2, 100–200 µM; cited from earlier work

O=C(O)C(=O)CBr [3-BP, 3-bromopyruvic acid]
cell migration [1]: significantly inhibited | IC50 [2]: 16 to 84 µM | IC50 [3]: 19 ± 3 µM | IC50 [4]: 22 ± 4 µM

Oc1cc(O)c2cc(O)c(-c3cc(O)c(O)c(O)c3)[o+]c2c1 [Delphinidin chloride, 3,3′,4′,5,5′,7-hexahydroxyflavylium]
IC50 [5]: 1.9 µM | viability [6]: decreased, concentration-dependently, the viability | viability [7]: did not affect the viability | IC50 [8]: 58 µM | IC50 [9]: 44 µM | IC50 [10]: 55 µM | IC50 [11]: 38 µM | induction of apoptosis [12]: induced apoptosis | IC50 [13]: 16 ± 2 µM | viability [14]: did not affect significantly the viability | viability [15]: did not affect the viability | IC50 [16]: 35 µM | viability [17]: decreased the viability | viability [18]: concentration-dependently decreased the viability | viability [19]: did not affect significantly the viability | viability [20]: did not affect significantly the viability | viability [21]: decreased the viability
